Test results: US20140243332A1, “METHODS OF TREATING CANCERS CHARACTERIZED BY ABERRENT ROS1 ACTIVITY” (Oregon Health & Science University, priority 2013, published 2014)

Legend:
[1] = target: Ba/F3 FIG-ROS G1971E cells (Homo sapiens, UniProt P08922, G1971E, cells depend on it); test: Cell viability assay, Ba/F3 FIG-ROS G1971E; format: cell-based; settings: Table 3, Ba/F3 FIG-ROS G1971E; nM; read-out: IC50 (the source's name)
Description: (§1) Cell lines were distributed in 96-well plates and incubated with the indicated concentrations of inhibitor for 72 hours. […] Ba/F3 cell lines were plated at 4×10^3 cells/well. HCC78 and mCC cell lines were plated at 1.5×10^3 cells/well. All cell types were seeded in a final volume of 80 microliters. A 20 microliter volume of five-fold concentrated inhibitor media was added. Cell proliferation was measured using a […] viability assay (CellTiter96 Aqueous One® Solution; Promega). A BioTek Synergy 2® plate reader was used to read the absorbance at 490 nm at 30 minutes and 1 hour after addition of MTS. To facilitate comparison between experiments, the raw MTS absorbance of vehicle (0.1% DMSO) treated cells was set to 1 and absorbance from inhibitor treated wells was normalized to the vehicle treated value. […] Data were normalized using Microsoft Excel® and further non-linear regression curve fit analysis of the normalized data for determination of IC50 was performed using Graphpad Prism® software.
(§2) The FIG-ROS-S fusion gene was synthesized using the GeneArt® service. FIG-ROS-S is denoted as FIG-ROS herein.

[2] = tested on: FIG-ROS murine cholangiocarcinoma tumor cells; test: cells; settings: Mus musculus, read-out: IC50 cell growth
Description: (§3) Hepatoblasts of the genotype AlbCre^+/−; Isl Kras^G12D+/−; p53^R172H/loxp were isolated from ED14.5 mouse embryos and retrovirally transduced with either the FIG-ROS fusion, turbo RFP or a short hairpin RNA against Pten (shPten.1522). At 48 hours following transduction, 1×10^6 cells were resuspended in 25 μl Matrigel and injected sub-capsular into the livers of immune-deficient mice. Upon tumor formation, tumors were explanted and subjected to collagenase digestion. Digests were plated onto gelatin-coated plates. Tumor cells were enriched by either differential trypsinization or cell sorting. […] These four cell lines were further cultured and maintained in DMEM-High glucose medium supplemented with 10% FCS, L-glutamine and penicillin/streptomycin.
as §1
(§4) To directly assess inhibition of FIG-ROS phosphorylation, immunoblot analyses of lysates from vehicle or inhibitor-treated cells were performed.

[3] = tested on: shPten murine cholangiocarcinoma tumor cells; test: cells; settings: Mus musculus, read-out: IC50 cell growth
Description: as §3, §1, §4

[4] = tested on: HCC4011 cells; test: Cell viability assay, HCC4011; format: cell-based, human; settings: HCC4011 cells (activated EGFR), FIG. 6B
Description: IC50 was determined from non-linear regression curve fit analysis of the dose response curves.

[5] = target: Ba/F3 FIG-ROS C2060G cells (Homo sapiens, UniProt P08922, C2060G, cells depend on it); test: Cell viability assay, Ba/F3 FIG-ROS C2060G; format: cell-based; settings: Table 3, Ba/F3 FIG-ROS C2060G; nM; read-out: IC50 (the source's name)
Description: as §1, §2

[6] = tested on: SLC-ROS and ERK1/2 phosphorylation; test: Immunoblot of HCC78 lysates; format: cell-based, human; settings: HCC78 cells, immunoblot FIG. 1E
Description: FIG. 1E is an image of an immunoblot of lysates of HCC78 cells probing for phosphorylated and total SLC-ROS1 and ERK1/2, and phosphorylated protein S6 after treatment with the indicated concentration of the indicated inhibitor. The images are representative of two independent experiments.
(§5) Ba/F3 FIG-ROS, Ba/F3 SLC-ROS, HCC78 and mCC cell lines were treated with the indicated concentration of inhibitors for 1-2 hours. […] The protein content of the cell lysates was determined and lysates were either used for immunoprecipitation where indicated or extracted with SDS Sample buffer for 15 minutes at 80° C. Proteins were transferred to Immobilon-FL membranes and immunoblotted with antibodies specific for phospho-ROS1 (Cell Signaling Technology (CST) #3078), total ROS1 (CST #3266), phopsho-Shp2 (CST #3751), total Shpt (CST #3752), phospho-Stat3 (CST #9145), total Stat3 (CST #4904), phospho-Erk1/2 (CST #9101), total Erk2 (Santa Cruz #SC-1647), phospho-S6 (CST #4858), total S6 (CST #2216), phospho-Src (CST #2105), total Src (CST #2110), α-tubulin (Sigma T6199), or β-actin (Sigma A1978) as indicated. Images of the blots were generated by the LI-COR Odyssey® imaging system, following the manufacturer's protocol for immunoblot detection with use of IR-dye conjugated secondary antibodies.

[7] = tested on: NIH3T3 SLC-ROS cells; test: Soft agar colony formation, NIH3T3 SLC-ROS; format: cell-based; settings: at lower doses than crizotinib
Source text: The bottom panels are bar graphs indicating the number of colonies formed from the plates depicted in the top panels. The values indicate average colony number±SEM from 4 independent wells.

[8] = tested on: FIG-ROS tumors; test: In vivo treatment of mice bearing subcutaneous FIG-ROS cholangiocarcinoma tumors; settings: 25 mg/kg oral gavage once daily, 9 days, immunodeficient mice; foretinib p<0.0001 for Lines 4 and 6
Description: Mouse chorangiocarcinoma cell lines expressing either FIG-ROS or shPten were subcutaneously injected into 11 week old female immune-deficient mice. […] Caliper measurements were taken at the time of treatment initiation and 24 hrs after administration of the last dose. Data in waterfall plots is calculated as follows: ((tumor volume Tend/tumor volume T0)−1). Caliper measurements of tumors were taken at T0 and Tend. Tumor volume is calculated as: 0.5*L*Ŵ2(L>W).
Tumors were formed by subcutaneous injection of the murine cholangiocarcinoma cell lines described above in the flanks of immunodeficient mice. […] Caliper measurements were taken at the time of treatment initiation (Ti) and 24 h after administration of the last dose (Tend).

[9] = target: FIG-ROS (Homo sapiens, UniProt P08922); test: Immunoblot of Ba/F3 FIG-ROS lysates; format: cell-based; set-up: expressed in transfected cells; host or cells: Ba/F3 (A14), retroviral pMSCV-IRES-GFP; the other entry of the earlier key: GOPC (Q9HD26, Golgi-associated PDZ and coiled-coil motif-containing protein); settings: Ba/F3 FIG-ROS cells, increasing amounts, immunoblot FIG. 1C
Description: FIG. 1C is an image of an immunoblot of lysates of Ba/F3 FIG-ROS and Ba/F3 SLC-ROS and the indicated downstream effectors after treatment with the indicated compounds. Images shown are representative of three independent experiments.
as §5

## COc1cc2c(Oc3ccc(NC(=O)C4(C(=O)Nc5ccc(F)cc5)CC4)cc3F)ccnc2cc1OCCCN1CCOCC1 [foretinib, N1′-[3-fluoro-4-[[6-methoxy-7-(3-morpholinopropoxy)-4-quinolyl]oxy]phenyl]-N1-(4-fluorophenyl)cyclopropane-1,1-dicarboxamide]
[1]
  GI50: 8.69 nM
[2]
  IC50: 300 nM
[3]
  IC50: > 2000 nM
[4]
  sensitivity of cell growth: relatively insensitive
[5]
  GI50: 13.6 nM
[6]
  inhibition of SLC-ROS and ERK1/2 phosphorylation: at a lower concentration than did crizotinib
[7]
  anchorage-independent colony formation: strongly suppressed
[8]
  FIG-ROS tumor volume: dramatically and significantly reduced
[9]
  autophosphorylation of FIG-ROS and ROS1-driven signaling (phospho-Shp2, phospho-ERK1/2): dose dependent decrease
